Reference: US11718645B2, “Macrocyclic therapeutic agents, methods of manufacture, and methods of treatment” (University of Florida Research Foundation, Incorporated, priority 2014, dated 2023)

What was measured:
[1] = tested on: VEGF-A secretion; assay: Measurement of VEGF-A production (alphaLISA) in HCT116 culture supernatants; type: cell-based, human; details: for IC50: determined after 12 h (n = 3)
Protocol: Human colon adenocarcinoma HCT116 cells were purchased from ATCC (Manassas, Va.) and cultured in Dulbecco's modified Eagle's medium (Invitrogen, Carlsbad, Calif.) supplemented with 10% fetal bovine serum (HyClone, Logan, Utah) at 37° C. humidified air and 5% CO2.
HCT116 cells (1×10^4 cells per well) were seeded in 96-well plates and one day later treated with various concentrations of apratoxins or solvent control. After 12 h of incubation, culture supernatants were collected for detection of VEGF-A by using an alphaLISA kit (PerkinElmer, Waltham, Mass.) following the manufacturer's instructions. Briefly, acceptor bead and anti-VEGF antibody were incubated first with the supernatants for 60 min, donor beads were added later and incubated for another 30 min and then VEGF-A levels detected using Envision (PerkinElmer).

[2] = tested on: met proto-oncogene (MET) receptor; assay: Immunoblot analysis for RTK (MET) levels in HCT116 cells; type: cell-based, human; details: for activity compared with apratoxin S4 (BK) in all biological assays: HCT116, MET levels, cell viability, VEGF-A secretion
Protocol: HCT116 cells were seeded in 6-well plates at a density of 4×10^5 cells and the next day treated with various concentrations of apratoxins or solvent control. 24 h later, whole cell lysates were collected using PhosphoSafe buffer (EMD Chemicals, Inc, Gibbstown, N.J.). The protein concentration was measured with the BCA Protein Assay kit (Thermo Fisher Scientific, Rockford, Ill.). Lysates containing equal amounts of protein were separated by SDS polyacrylamide gel electrophoresis (4-12%), transferred to polyvinylidene difluoride membranes, probed with primary and secondary antibodies, and detected with the SuperSignal West Femto Maximum Sensitivity Substrate (Thermo Fisher Scientific). Anti-Met and secondary anti-mouse antibodies were from Cell Signaling Technology, Inc. (Danvers, Mass.).

[3] = Microsomal stability; type: in vitro ADME, mouse
Protocol: HPLC-MS was done on a 3200 QTRAP (Applied Biosystems) equipped with a Shimadzu (Kyoto, Japan) UFLC System. Mouse serum and harmine were purchased from Sigma-Aldrich. Pooled CD1 mouse liver (female) microsomes were purchased from XenoTech, LCC (Lenexa, Kans.) with protein concentrations of 0.5 mg/ml. HCT116 cell lysates were prepared with PhosphoSafe lysis buffer (Novagen). Protein concentration was determined by using the BCA Assay. Analysis was carried out similarly as previously described [Liu, Y.; Salvador, L. A.; Byeon, S.; Ying, Y.; Kwan, J. C.; Law, B. K.; Hong, J.; Luesch. H. J. Pharmacol. Exp. Ther. 2010, 335, 351-361].
The stability of apratoxin A, S4 (BK), S7 (BL), S8 (BM) and S9 (BN) in the presence of mouse microsomes was determined by using an adaptation of a published procedure [Ackley, D. C.; Rockich, K. T.; Baker, T. R. Optimization in Drug Discovery: In Vitro Methods (Series: Methods in Pharmacology and Toxicology) (eds Yan Z, Caldwell J W) 2004, pp 151-162, Springer, New Jersey]. In brief, microsomes were added to prewarmed phosphate buffer (100 mM, pH 7.4) at 37° C. Apratoxin A, BK, BL, BM, or BN (3 μL) were added to the microsomal preparation followed by NADPH cofactor solution (1.3 mM NADP, 3.3 mM glucose 6-phosphate, 0.4 U/mL glucose-6-phosphate dehydrogenase, 3.3 mM MgCl2). The reaction was allowed to proceed for 3 min to 3 h (7 time points) at 37° C. (thermomixer, 1050 rpm). The reaction was quenched by addition of ethyl acetate and subsequently spiked with harmine. The zero time point was defined by denaturing the microsomes with ethyl acetate before the addition of apratoxins. Incubation of apratoxins with microsomes alone was also performed following the same procedure to determine NADPH-dependent metabolism. The final concentration of the incubation mixture contained 0.5 mg/ml protein concentration and 1 μM apratoxins.
(§1) Analysis of apratoxin A, S4 (BK), S7 (BL), S8 (BM) and S9 (BN) was done by using HPLC-MS [column, Onyx Monolithic C18 (3.0×100 mm), Phenomenex (Torrance, Calif.); solvent, water (solvent A) acetonitrile (solvent B); flow rate, 0.5 ml/min; detection by electrospray ionization-MS in positive ion mode (MRM scan)]. A stepwise gradient elution was used starting at 60% B and 40% A, then increasing to 80% B at 5 min and maintained at this condition for 5 min. Parameters were optimized before analysis by using direct syringe infusion. The retention times (tR, min; MRM ion pair) of the analytes and internal standard are as follows: harmine (2.2; 213.1→169.9), apratoxin A (4.7; 841.4→445.2), apratoxin S4 (BK) (4.1; 828.5→432.2), apratoxin S7 (BL) (4.05; 814.5→418.2), apratoxin S8 (BM) (5.2; 842.5→446.2), apratoxin S9 (BN) (4.9; 828.5→432.2). Compound-dependent parameters used were as follows: apratoxin A, declustering potential (DP) 51, entrance potential (EP) 12, collision energy (CE) 45, collision cell exit potential (CXP) 6, collision cell entrance potential (CEP) 32; and harmine, DP 56.0, EP 4.5, CE 44.0, CXP 5, CEP 16.0. Source gas parameters used were as follows: curtain gas, 15.0; collision gas low, ionspray voltage 5500; temperature, 600.0; ion source gas 150.0; ion source gas 2 60.0.
(§2) Calibration curves for apratoxin A, S4 (BK), S7 (BL), S8 (BM) and S9 (BN) in the presence of mouse serum, HCT116 cell lysates, and aqueous solutions were generated by least-square linear regression analysis of the analyte peak area and internal standard peak area ratio against the nominal concentration of the standard solutions. A linear regression analysis was performed, and the concentration of remaining apratoxins at each time point was determined through interpolation for plasma, cellular, and aqueous stability experiments. The amount of remaining apratoxins with microsome incubation was determined from the peak area ratio of apratoxins at tx (3 min to 3 h) and t0. All calculations were done by using Analyst 1.4.2 (Applied Biosystems) Quantitate Mode.

[4] = Cellular stability in HCT116 cell lysate; type: in vitro ADME, human; details: HCT116 protein lysate 0.7 mg/mL, up to 24 h, FIG. 2D
Protocol: Aliquots of HCT116 cell lysates were diluted with 25 mM Tris-HCl buffer, pH 8.0, to give a final reaction volume of 100 μL and protein concentration of 0.7 mg/mL. Cell lysate solutions were incubated with 10 μL of apratoxin A, BK, BL, BM, or BN (25 μg/mL) for 0.25 min to 24 h (nine time points). Remaining apratoxin A, BK, BL, BM, or BN were extracted from the reaction solution at the end of the incubation periods with ethyl acetate using the same procedure as described for the plasma stability assay.
as §1, §2

| SMILES | potency relative to the other apratoxins, VEGF-A secretion [1] | IC50 [1] [nM] | potency in reducing levels of MET receptor ([2]; HCT116, immunoblot, 24 h, FIG. 1) | potency relative to the other apratoxins, MET levels ([2]; HCT116, immunoblot, FIG. 1) | activity compared with apratoxin S4 (BK) in all biological assays [2] | % remaining ([3]; microsomes + NADPH, 0 min) [%] | % remaining ([3]; microsomes + NADPH, 3 min) [%] | % remaining ([3]; microsomes + NADPH, 5 min) [%] | % remaining ([3]; microsomes + NADPH, 15 min) [%] | % remaining ([3]; microsomes + NADPH, 30 min) [%] | % remaining ([3]; microsomes + NADPH, 60 min) [%] | % remaining ([3]; microsomes + NADPH, 120 min) [%] | % remaining ([3]; microsomes only, 0 min) [%] | % remaining ([3]; microsomes only, 3 min) [%] | % remaining ([3]; microsomes only, 5 min) [%] | % remaining ([3]; microsomes only, 15 min) [%] | % remaining ([3]; microsomes only, 30 min) [%] | % remaining ([3]; microsomes only, 60 min) [%] | % remaining ([3]; microsomes only, 120 min) [%] | cellular stability [4] |
| --- | --- | --- | --- | --- | --- | --- | --- | --- | --- | --- | --- | --- | --- | --- | --- | --- | --- | --- | --- | --- |
| CC[C@H](C)[C@H]1C(=O)N2CCC[C@@H]2C(=O)O[C@H](C(C)(C)C)C[C@@H](C)C[C@H](O)[C@H](C)C2=N[C@H](CCC(=O)N[C@@H](Cc3ccc(OC)cc3)C(=O)N(C)[C@@H](C)C(=O)N1C)CS2 [apratoxin S9 (BN), Apratoxin S9] | 2-3 fold | 0.12 | superior, picomolar (sub-nanomolar) potency | 2-3 fold | retained potent activity | 100 | 51.40 ± 8.06 | 17.80 ± 0.28 | 3.55 ± 0.25 | 3.73 ± 0.25 | 6.06 ± 2.40 | 5.63 ± 0.18 | 100 | 83.10 ± 0.42 | 71.40 ± 1.27 | 45.25 ± 5.30 | 56.05 ± 1.06 | 48.45 ± 0.92 | 56.25 ± 0.21 | excellent |
| CC[C@H](C)[C@H]1C(=O)N2CCC[C@@H]2C(=O)O[C@H](C(C)(C)C)C[C@@H](C)C[C@H](O)C(C)(C)C2=N[C@@H](CCC(=O)N[C@@H](Cc3ccc(OC)cc3)C(=O)N(C)[C@@H](C)C(=O)N1C)CS2 [apratoxin S8 (BM), Apratoxin S8] |  | 0.47 |  |  | retained potent activity | 100 | 37.20 ± 1.27 | 17.30 ± 2.55 | 8.28 ± 2.86 | 4.83 ± 1.05 | 3.55 ± 0.91 | 5.01 ± 0.23 | 100 | 74.10 ± 9.62 | 77.45 ± 3.18 | 63.45 ± 3.61 | 74.75 ± 8.70 | 81.25 ± 1.91 | 70.05 ± 0.78 | excellent |
| CC[C@H](C)[C@H]1C(=O)N2CCC[C@@H]2C(=O)O[C@H](C(C)(C)C)C[C@@H](C)C[C@H](O)CC2=N[C@@H](CCC(=O)N[C@@H](Cc3ccc(OC)cc3)C(=O)N(C)[C@@H](C)C(=O)N1C)CS2 [apratoxin S7 (BL), Apratoxin S7] |  | 0.3 |  |  | retained potent activity | 100 | 54.95 ± 4.74 | 18.70 ± 1.41 | 52.40 ± 2.40 | 6.10 ± 1.96 | 5.41 ± 1.09 | 4.30 ± 0.82 | 100 | 66.60 ± 12.30 | 60.50 ± 2.26 | 76.55 ± 9.55 | 54.80 ± 1.56 | 54.50 ± 0.00 | 53.85 ± 9.40 | excellent |
